How the values were obtained:
[1] = system: Miyakogusa (Lotus japonicus); assay: Root nodule formation (number of infection threads, number of root nodules) in Miyakogusa inoculated with DsRED gene-bearing rhizobium; assay type: in vivo; conditions: final concentration 10 μM or 100 μM, vs Non-addition (control)
Procedure: First, caffeic acid (Caffeic Acid, CAS RN: 331-39-5 C0002, Tokyo Chemical Industry Co., Ltd.) was dissolved in ethanol, thereby preparing a 100 mM stock solution. Next, about 300 mL of vermiculite was added to pots, entirely moistened with water, and then sterilized in an autoclave. Miyakogusa (Lotus japonicus) three to four days after sowing was transplanted into the pots, and 50 mL of B&D liquid medium (Broughton and Dilworth, 1971) containing a DsRED gene-bearing rhizobium (OD600=[…]; 1 mL) and caffeic acid (final concentration: 10 μM or 100 μM) was added.
Plants inoculated with the rhizobium were grown in an incubator (26° C.; 16 hr light/8 hr dark). The plants were dug up from the soil after one week and two weeks, and the number of infection threads and the number of root nodules were counted under a fluorescent stereomicroscope.
In FIG. 1, error bars in the graphs represent standard errors, and asterisks (*) indicate data with a significant difference (Dunnett method: p<0.05; n=10) compared to Non-addition (control).

[2] = system: soybean (Glycine max cv. Enrei); assay: Biomass production and root nodule formation in soybean inoculated with rhizobia (Bradyrhizobium japonicum); assay type: in vivo; conditions: 100 μM, vs Non-addition (control), Dunnett p<0.01, n=8
Procedure: In this Example, first, seeds of the soybean (Glycine max cv. Enrei) were placed on wet Kimwipes® for three to four days to germinate and then transferred to pots containing vermiculite (about 1.1 L) and grown for about three days in a plant incubator (28° C.; 16 hr light/8 hr dark). Next, a non-addition plot was prepared by adding rhizobia (Bradyrhizobium japonicum; OD600=0.1; 1 mL) to 50 ml of B&D medium. An addition plot was prepared by adding ferulic acid (final concentration: 100 μM) to 50 mL of B&D medium containing rhizobia. They were inoculated into the individual soybean plants. Soybean plants grown in the incubator for one week and two weeks were dug up from the pots, and their growth (aerial part length, underground part length, number of leaves) and number of root nodules were measured.
In FIGS. 4 and 5, error bars in the graphs represent standard errors, and asterisks (**) indicate data with a significant difference (Dunnett method: p<0.01; n=8) compared to Non-addition (control).

[3] = after two weeks, Dunnett p<0.05, n=10

Row | Structure (SMILES) | number of root nodules ([1]; after one week) | number of infection threads ([1]; after two weeks) | number of root nodules [1, 3] | number of root nodules ([2]; soybean grown for one week) | aerial part length ([2]; soybean grown for two weeks) | number of root nodules ([2]; soybean grown for two weeks) | number of infection threads ([1]; after one week, Dunnett p<0.05, n=10)
1 | COc1cc(/C=C/C(=O)O)cc(OC)c1O [sinapinic acid, 3,5-Dimethoxy-4-hydroxycinnamic Acid] | significant increase | significant increase | – | – | – | – | –
2 | COc1cc(/C=C/C(=O)O)ccc1O [ferulic acid, 3-methoxy-4-hydroxycinnamic acid] | – | significant increases | significant increases | significantly increased | significantly increased | significantly increased | –
3 | O=C(O)/C=C/c1ccc(O)c(O)c1 [caffeic acid] | – | – | tendency for the number of root nodules to increase | – | – | – | significant increase

Reference: patent US20230404075A1, “RHIZOBIA SYMBIOSIS PROMOTING AGENT AND SYMBIOSIS PROMOTION METHOD” (TOYOTA JIDOSHA KABUSHIKI KAISHA, priority 2020, published 2023)
